Results on 23 molecules are retold here after article PMC8812735, “Discovery of triterpenoids as potent dual inhibitors of pancreatic lipase and human carboxylesterase 1” (Journal of Enzyme Inhibition and Medicinal Chemistry, 2022).

In the first assay the target is T1, hCES1A (Homo sapiens, UniProt P23141).
T1 construct: tissue Bioreclamation IVT lot No. X008067; host or cells: pooled human liver microsomes from 50 donors
T1 sequence (P23141 18-567): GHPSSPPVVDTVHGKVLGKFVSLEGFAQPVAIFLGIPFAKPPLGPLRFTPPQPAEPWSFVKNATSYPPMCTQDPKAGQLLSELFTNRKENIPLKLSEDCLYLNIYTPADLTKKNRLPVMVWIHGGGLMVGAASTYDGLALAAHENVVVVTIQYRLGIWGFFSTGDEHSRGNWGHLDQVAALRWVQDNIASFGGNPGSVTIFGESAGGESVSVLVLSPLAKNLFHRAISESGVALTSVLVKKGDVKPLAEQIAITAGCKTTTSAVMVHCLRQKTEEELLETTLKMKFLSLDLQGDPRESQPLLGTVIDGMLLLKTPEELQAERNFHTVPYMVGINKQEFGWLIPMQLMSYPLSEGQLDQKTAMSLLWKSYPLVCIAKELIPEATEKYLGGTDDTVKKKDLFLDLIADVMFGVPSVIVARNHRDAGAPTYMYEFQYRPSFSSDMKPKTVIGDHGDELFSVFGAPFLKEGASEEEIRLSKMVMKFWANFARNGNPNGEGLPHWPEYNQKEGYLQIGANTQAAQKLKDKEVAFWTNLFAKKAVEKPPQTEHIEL
Put plainly: Inhibition of hCES1A-mediated NLMe hydrolysis in human liver microsomes. Type of assay: biochemical.
Settings: not given
The method, then: N-Alkylated D-luciferin methyl ester (NLMe), a Specific probe for hCES1A[45], was used for assessing the inhibitory effects for triterpenoids, and BNPP was used as a positive inhibitor of hCES1A. […] Then NLMe (2 µL, 0.15 mM) was added to start the reaction. After shaking the reaction in 37 °C incubator for 10 min, 50 µL of reaction solution was removed and mixed with LDR (50 µL) to terminate the reaction. A multi-mode microplate reader was used to detect the luminescence signal of NL (the hydrolysed metabolite of NLMe). The luminescence product of NL was measured at 580 nm (gain: 140). The final volume ratio of DMSO was less than 1% (V/V).
(§1) Subsequently, various concentrations of substrates (selected according to Km) and different concentrations of inhibitors were used to determine the corresponding reaction rate, and the second slope graph of the Lineweaver–Burk diagram was used as a function of the inhibitor to calculate the corresponding inhibition constant (Ki) value. All kinetic data were fitted by the following kinetic equations (a–c), for competitive (a), non-competitive (b) and mixed inhibition (c): (a) V=(VmaxS)/[Km(1+I/Ki)+S] (b) V=(VmaxS)/[(Km+S)×(1+I/Ki)] (c) V=(VmaxS)/[(Km+S)×(1+I/αKi)] where V is the hydrolytic velocity of the reaction, Vmax is the maximum velocity. S and I are substrate (4-MUO, NLMe) and inhibitor (compound 39/41) concentrations, respectively. Ki is the inhibition constant of the tested inhibitor against the target PL and hCES1A; Km is the Michaelis constant (the substrate concentration at half of the Vmax).
All measurements were made in triplicate and the data obtained in the experiment were shown as mean ± SD. The IC50 and Ki values of the compounds with strong inhibitory effect were evaluated by nonlinear regression with graphpad prism 7.0 software (GraphPad Software, Inc., La Jolla, CA).
For orientation: IC50 means the concentration that gives 50% inhibition. Regarding `CC1(C)CC[C@]2(C(=O)O)CC[C@]3(C)C(=CC[C@@H]4[C@@]5(C)C[C@@H](O)[C@H](O)C(C)(C)[C@@H]5CC[C@]43C)[C@@H]2C1` [Compound 2, maslinic acid], the concentration for half-maximal inhibition (IC50) is 0.12 ± 0.01 µM.
Molecule `C[C@H]1[C@H](C)CC[C@]2(C(=O)O)CC[C@]3(C)C(=CC[C@@H]4[C@@]5(C)C[C@@H](O)[C@H](O)C(C)(C)[C@@H]5CC[C@]43C)[C@H]12` [Compound 6, corosolic acid] had an IC50 of 0.34 ± 0.04 µM.

Still in this assay, the particulars now being: NLMe substrate, HLM, mean ± SD (n = 3); read-out: IC50 (µM) hCES1A.
With `CC1(C)CC[C@]2(C(=O)O)CC[C@]3(C)C(=CC[C@@H]4[C@@]5(C)CC[C@H](O)C(C)(C)[C@@H]5CC[C@]43C)[C@@H]2C1` [Compound 1, oleanolic acid], the IC50 stood at 0.04 ± 0.003 µM.
On the same count and under the same terms, the same measure for `C[C@H]1[C@H](C)CC[C@]2(C(=O)O)CC[C@]3(C)C(=CC[C@@H]4[C@@]5(C)CC[C@H](O)C(C)(C)[C@@H]5CC[C@]43C)[C@H]12` [Compound 5, ursolic acid]: 0.04 ± 0.004 µM; for `CCCCCCCCCCC[C@@H](C[C@@H]1OC(=O)[C@H]1CCCCCC)OC(=O)[C@H](CC(C)C)NC=O` [Compound 28, Orlistat, reference compound]: 0.035 ± 0.003 µM.

The target of another assay is T2, Pancreatic lipase (PL) (Sus scrofa, UniProt P00591).
T2 construct: purchased Sigma Aldrich type II, Lot.SLBN9099V
T2 sequence (P00591 1-450): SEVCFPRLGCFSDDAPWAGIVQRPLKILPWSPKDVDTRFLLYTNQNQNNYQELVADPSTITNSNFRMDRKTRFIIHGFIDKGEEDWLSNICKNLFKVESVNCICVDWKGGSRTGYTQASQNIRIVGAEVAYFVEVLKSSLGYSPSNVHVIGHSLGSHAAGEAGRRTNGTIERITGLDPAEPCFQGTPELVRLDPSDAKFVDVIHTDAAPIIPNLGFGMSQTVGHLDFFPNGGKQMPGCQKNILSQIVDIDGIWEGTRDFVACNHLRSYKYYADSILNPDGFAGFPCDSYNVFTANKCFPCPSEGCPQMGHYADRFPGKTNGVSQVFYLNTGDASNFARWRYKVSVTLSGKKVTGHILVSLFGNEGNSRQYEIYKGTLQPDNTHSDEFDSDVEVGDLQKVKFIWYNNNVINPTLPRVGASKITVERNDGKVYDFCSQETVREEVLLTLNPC
In words: Inhibition of PL-mediated 4-MUO hydrolysis. Type of assay: biochemical. The conditions noted are these: 4-MUO substrate, mean ± SD (n = 3). As for the experimental part: In addition, the background fluorescence in the absence of an enzyme source (PL) (add the same amount of citrate-Na2HPO4 buffer) was measured. […] Then start the reaction by adding 2 µL of 4-MUO probe (3 µM, final concentration). The fluorescence signal of 4-MU (hydrolytic metabolite) was detected by multi-mode microplate reader (SpectraMax M4, Molecular Devices, Urstein, Austria) with continuous oscillation for 20 min and recorded and analysed at 60 s intervals. The excitation wavelength and emission wavelength of 4-MU were set at 340 nm and 460 nm, respectively, and the gain value was 500.
as §1
All measurements were made in triplicate and the data obtained in the experiment were shown as mean ± SD.
`CC1(C)CC[C@]2(C(=O)O)CC[C@]3(C)C(=CC[C@@H]4[C@@]5(C)CC[C@H](O)C(C)(C)[C@@H]5CC[C@]43C)[C@@H]2C1` [Compound 1, oleanolic acid] yielded a concentration for half-maximal inhibition (IC50) of 8.63 ± 0.84 µM.
The same measure, in the same setting: for `CC1(C)CC[C@]2(C(=O)O)CC[C@]3(C)C(=CC[C@@H]4[C@@]5(C)C[C@@H](O)[C@H](O)C(C)(C)[C@@H]5CC[C@]43C)[C@@H]2C1` [Compound 2, maslinic acid] the value was 16 ± 4.59 µM; for `CC1(C)CC[C@]2(C(=O)O)[C@H](O)C[C@]3(C)C(=CC[C@@H]4[C@@]5(C)C[C@@H](O)[C@H](O)[C@@](C)(CO)[C@@H]5CC[C@]43C)[C@@H]2C1` [Compound 4, polygalacic acid], over 100 µM; for `C[C@H]1[C@H](C)CC[C@]2(C(=O)O)CC[C@]3(C)C(=CC[C@@H]4[C@@]5(C)CC[C@H](O)C(C)(C)[C@@H]5CC[C@]43C)[C@H]12` [Compound 5, ursolic acid], 6.16 ± 0.97 µM.
Same read-out and setting: the same measure for `C[C@H]1[C@H](C)CC[C@]2(C(=O)O)CC[C@]3(C)C(=CC[C@@H]4[C@@]5(C)C[C@@H](O)[C@H](O)C(C)(C)[C@@H]5CC[C@]43C)[C@H]12` [Compound 6, corosolic acid]: 12.8 ± 1.44 µM; for `CC1(C)[C@@H](O)CC[C@]2(C)[C@H]3C(=O)C=C4[C@@H]5C[C@@](C)(C(=O)O)CC[C@]5(C)CC[C@@]4(C)[C@]3(C)CC[C@@H]12` [Compound 9, glycyrrhetic acid]: 28.3 ± 9.47 µM; for `CC1(C)[C@@H](O[C@H]2O[C@H](C(=O)O)[C@@H](O)[C@H](O)[C@H]2O[C@@H]2O[C@H](C(=O)O)[C@@H](O)[C@H](O)[C@H]2O)CC[C@]2(C)[C@H]3C(=O)C=C4[C@@H]5C[C@@](C)(C(=O)O)CC[C@]5(C)CC[C@@]4(C)[C@]3(C)CC[C@@H]12` [Compound 10, glycyrrhizic acid]: over 100 µM.
On to `C=C(C)[C@@H]1CC[C@]2(C=O)CC[C@]3(C)[C@H](CC[C@@H]4[C@@]5(C)CC[C@H](O)C(C)(C)[C@@H]5CC[C@]43C)[C@@H]12` [Compound 13], for which the IC50 is over 100 µM.
The same measure, in the same setting: for `C=C(C)[C@@H]1CC[C@]2(C(=O)O)CC[C@]3(C)[C@H](CC[C@@H]4[C@@]5(C)CC[C@H](O)C(C)(C)[C@@H]5CC[C@]43C)[C@@H]12` [Compound 14] the value was over 100 µM; for `C=C(C)[C@@H]1CC[C@]2(C)CC[C@]3(C)[C@H](CC[C@@H]4[C@@]5(C)CC[C@H](O)C(C)(C)[C@@H]5CC[C@]43C)[C@@H]12` [Compound 15], over 100 µM.
Same read-out and setting: for `C=C(CC[C@@H](C(=O)O)[C@H]1[C@H](O)C[C@@]2(C)C3=C(CC[C@]12C)[C@@]1(C)CC[C@H](OC(C)=O)C(C)(C)[C@@H]1CC3)C(C)C` [Compound 16, pachymic acid] the value was over 100 µM.
Same read-out and setting: the same measure for `CC(CC(=O)C[C@@H](C)[C@H]1CC(=O)[C@@]2(C)C3=C(C(=O)C[C@]12C)[C@@]1(C)CC[C@H](O)C(C)(C)[C@@H]1C[C@@H]3O)C(=O)O` (stereo partly drawn) [Compound 17, ganoderic acid B]: over 100 µM.
Molecule `CC(C)=CCC[C@](C)(O[C@@H]1O[C@H](CO)[C@@H](O)[C@H](O)[C@H]1O)[C@H]1CC[C@]2(C)[C@@H]1[C@H](O)C[C@@H]1[C@@]3(C)CC[C@H](O)C(C)(C)[C@@H]3[C@@H](O)C[C@]12C` [Compound 18] came in with an IC50 of over 100 µM.
Still for that read-out and setting: the same measure for `CC(C)=CCC=C(C)C1CCC2(C)C1C(O)CC1C3(C)CCC(O)C(C)(C)C3C(OC3OC(CO)C(O)C(O)C3OC3OC(C)C(O)C(O)C3O)CC12C` (stereo not drawn) [Compound 19]: 74.5 ± 28.4 µM; for `CC(C)=CCCC(C)(OC1OC(CO)C(O)C(O)C1O)C1CCC2(C)C1C(O)CC1C3(C)CCC(O)C(C)(C)C3C(OC3OC(CO)C(O)C(O)C3OC3OC(CO)C(O)C(O)C3O)CC12C` (stereo not drawn) [Compound 20]: 29.7 ± 5.02 µM; for `CC(C)=CCC[C@](C)(O[C@@H]1O[C@H](CO)[C@@H](O)[C@H](O)[C@H]1O)[C@H]1CC[C@]2(C)[C@@H]1[C@H](O)C[C@@H]1[C@@]3(C)CC[C@H](O)C(C)(C)[C@@H]3[C@@H](O[C@@H]3O[C@H](CO)[C@@H](O)[C@H](O)[C@H]3O[C@@H]3O[C@@H](C)[C@H](O)[C@@H](O)[C@H]3O)C[C@]12C` [Compound 21]: over 100 µM.
Turning to `CC(C)=CCC[C@](C)(O[C@@H]1O[C@H](CO)[C@@H](O)[C@H](O)[C@H]1O)[C@H]1CC[C@]2(C)[C@@H]1[C@H](O)C[C@@H]1[C@@]3(C)CC[C@H](O)C(C)(C)[C@@H]3[C@@H](O[C@@H]3O[C@H](CO)[C@@H](O)[C@H](O)[C@H]3O)C[C@]12C` [Compound 22], the IC50 was over 100 µM.
Same read-out and setting: for `CC(C)=CCC[C@](C)(O)[C@H]1CC[C@]2(C)[C@@H]1[C@H](O)C[C@@H]1[C@@]3(C)CC[C@H](O)C(C)(C)[C@@H]3[C@@H](O[C@@H]3O[C@H](CO)[C@@H](O)[C@H](O)[C@H]3O[C@@H]3O[C@@H](C)[C@H](O)[C@@H](O)[C@H]3O)C[C@]12C` [Compound 23] the value was over 100 µM; for `CC(C)=CCC[C@](C)(O)[C@H]1CC[C@]2(C)[C@@H]1[C@H](O)C[C@@H]1[C@@]3(C)CC[C@H](O)C(C)(C)[C@@H]3[C@@H](O[C@@H]3O[C@H](CO)[C@@H](O)[C@H](O)[C@H]3O)C[C@]12C` [Compound 24], over 100 µM.
On the same count and under the same terms, the same measure for `CC(C)=CC/C=C(\C)[C@H]1CC[C@]2(C)[C@@H]1[C@H](O)C[C@@H]1[C@@]3(C)CC[C@H](O)C(C)(C)[C@@H]3[C@@H](O[C@@H]3O[C@H](CO)[C@@H](O)[C@H](O)[C@H]3O)C[C@]12C` [Compound 25]: over 100 µM; for `CC1(C)CC[C@]2(C(=O)O[C@@H]3O[C@H](CO)[C@@H](O)[C@H](O)[C@H]3O)CC[C@]3(C)C(=CC[C@@H]4[C@@]5(C)CC[C@H](O[C@@H]6O[C@H](C(=O)O)[C@@H](O)[C@H](O)[C@H]6O[C@@H]6O[C@H](CO)[C@@H](O)[C@H](O)[C@H]6O)C(C)(C)[C@@H]5CC[C@]43C)[C@@H]2C1` [Compound 26]: over 100 µM.
Still for that read-out and setting: the same measure for `CC(C)=CCC[C@](C)(O[C@@H]1O[C@H](CO)[C@@H](O)[C@H](O)[C@H]1O)[C@H]1CC[C@]2(C)[C@@H]1[C@H](O)C[C@@H]1[C@@]3(C)CC[C@H](O)C(C)(C)[C@@H]3[C@@H](O[C@@H]3O[C@H](CO)[C@@H](O)[C@H](O)[C@H]3O[C@@H]3OC[C@@H](O)[C@H](O)[C@H]3O)C[C@]12C` [Compound 27]: over 100 µM.
